Assay results published in article PMC11249646, “Small-Molecule Disruptors of the Interaction between Calcium- and Integrin-Binding Protein 1 and Integrin αIIbβ3 as Novel Antiplatelet Agents” (ACS Pharmacology & Translational Science, 2024).

molecular target: T1, GST-CIB1:F-αIIb interaction (Homo sapiens, UniProt Q99828); experiment: Gel-based (in-gel) binding assay; conditions: 1 μM GST-CIB1, 400 nM F-αIIb; 60 μM, 1:2, 4-points
T1 construct: made in house; host or cells: BL-21 plus RIL cells (E. coli)
T1 sequence (Q99828 1-191): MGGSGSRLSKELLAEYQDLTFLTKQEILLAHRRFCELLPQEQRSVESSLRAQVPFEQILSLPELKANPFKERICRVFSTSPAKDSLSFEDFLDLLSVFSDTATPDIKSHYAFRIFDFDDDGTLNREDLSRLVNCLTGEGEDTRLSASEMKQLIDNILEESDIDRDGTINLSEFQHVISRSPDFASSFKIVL

Row | Compound | Active in Gel Assay?
1 | CCN(CC)C(=S)SSC(=S)N(CC)CC [NCGC00016000-13, disulfiram, reference compound] | YES
2 | CN(C)C(=S)SSC(=S)N(C)C [NCGC00091563-02, thiram, reference compound] | YES
3 | O=[N+]([O-])c1cnc(Sc2nnc(O)n2-c2ccc3c(c2)OCCO3)s1 [NCGC00263145-01] | YES

molecular target: T2, GST-CIB1 : F-αIIb peptide (Homo sapiens, UniProt Q99828); experiment: FP assay in the presence of glutathione (GSH), thiol reactivity; type: binding; conditions: not given
T2 construct: made in house; host or cells: BL-21 plus RIL cells (E. coli)
T2 sequence (Q99828 1-191): T1 sequence (Q99828 1-191)

Row | Compound | IC50 shift in the presence of GSH [fold]
4 | CCN(CC)C(=S)SSC(=S)N(CC)CC [NCGC00016000-13, disulfiram, reference compound] | 8.5

same assay, conditions: FP assay in the presence of glutathione (GSH +); read-out: GSH (+) Assay IC50

Row | Compound | IC50 [µM]
5 | CCN(CC)C(=S)SSC(=S)N(CC)CC [NCGC00016000-13, disulfiram, reference compound] | 27
6 | CN(C)C(=S)SSC(=S)N(C)C [NCGC00091563-02, thiram, reference compound] | 8.3

same assay, conditions: FP assay without glutathione (GSH -); read-out: GSH (-) Assay IC50

Row | Compound | IC50 [µM]
7 | CCN(CC)C(=S)SSC(=S)N(CC)CC [NCGC00016000-13, disulfiram, reference compound] | 3.2
8 | CN(C)C(=S)SSC(=S)N(C)C [NCGC00091563-02, thiram, reference compound] | 1

same assay, conditions: ratio of GSH (+) IC50 to GSH (-) IC50

Row | Compound | GSH/CIB1 IC50 ratio
9 | CCN(CC)C(=S)SSC(=S)N(CC)CC [NCGC00016000-13, disulfiram, reference compound] | 8.5
10 | CN(C)C(=S)SSC(=S)N(C)C [NCGC00091563-02, thiram, reference compound] | 8.3

same assay, conditions: with vs without 10 μM reduced GSH

Row | Compound | IC50 shift in the presence of GSH [fold]
11 | CN(C)C(=S)SSC(=S)N(C)C [NCGC00091563-02, thiram, reference compound] | 8.3

molecular target: T3, CIB1 and αIIb interaction (CIB1-GST : F-αIIb peptide) (Homo sapiens, UniProt Q99828); experiment: FP assay, 1536-well qHTS format (primary and confirmatory screen); type: binding; conditions: confirmatory screen, YES/NO call
T3 construct: made in house; host or cells: BL-21 plus RIL cells (E. coli)
T3 sequence (Q99828 1-191): T1 sequence (Q99828 1-191)

Row | Compound | CONFIRMATORY SCREEN Confirm?
12 | CCN(CC)C(=S)SSC(=S)N(CC)CC [NCGC00016000-13, disulfiram, reference compound] | YES
13 | O=[N+]([O-])c1cnc(Sc2nnc(O)n2-c2ccc3c(c2)OCCO3)s1 [NCGC00263145-01] | YES

same assay, conditions: confirmatory screen, qHTS curve class; negative sign = inhibitory curve

Row | Compound | CONFIRMATORY SCREEN Curve Class
14 | CCN(CC)C(=S)SSC(=S)N(CC)CC [NCGC00016000-13, disulfiram, reference compound] | -1.2
15 | O=[N+]([O-])c1cnc(Sc2nnc(O)n2-c2ccc3c(c2)OCCO3)s1 [NCGC00263145-01] | -1.4

same assay, conditions: confirmatory screen; negative = inhibition

Row | Compound | CONFIRMATORY SCREEN Efficacy (%)
16 | CCN(CC)C(=S)SSC(=S)N(CC)CC [NCGC00016000-13, disulfiram, reference compound] | -72
17 | O=[N+]([O-])c1cnc(Sc2nnc(O)n2-c2ccc3c(c2)OCCO3)s1 [NCGC00263145-01] | -64

same assay, conditions: confirmatory screen; read-out: CONFIRMATORY SCREEN IC50

Row | Compound | IC50 [µM]
18 | CCN(CC)C(=S)SSC(=S)N(CC)CC [NCGC00016000-13, disulfiram, reference compound] | 14.1
19 | O=[N+]([O-])c1cnc(Sc2nnc(O)n2-c2ccc3c(c2)OCCO3)s1 [NCGC00263145-01] | 11.2

same assay, conditions: qHTS primary screen hits, Table S2; negative = inhibition

Row | Efficacy (%) | Compound
20 | -40 | O=[N+]([O-])c1cnc(Sc2nnc(O)n2-c2ccc3c(c2)OCCO3)s1 [NCGC00263145-01]

same assay, conditions: qHTS primary screen hits, Table S2; negative sign = inhibitory curve; several classes where COUNT > 1

Row | Curve Class | Compound
21 | -2.2 | O=[N+]([O-])c1cnc(Sc2nnc(O)n2-c2ccc3c(c2)OCCO3)s1 [NCGC00263145-01]

same assay, conditions: qHTS primary screen hits, Table S2; read-out: IC50

Row | IC50 [µM] | Compound
22 | 21.5 | O=[N+]([O-])c1cnc(Sc2nnc(O)n2-c2ccc3c(c2)OCCO3)s1 [NCGC00263145-01]

molecular target: T4, GST-CIB1 : F-scrambled peptide (Homo sapiens, UniProt Q99828); experiment: FP scrambled-peptide counter screen, 384-well format; type: binding; conditions: F-scrambled peptide
T4 construct: made in house; host or cells: BL-21 plus RIL cells (E. coli)
T4 sequence (Q99828 1-191): T1 sequence (Q99828 1-191)

Row | Compound | 384-well COUNTERSCREEN Efficacy (%)
23 | CCN(CC)C(=S)SSC(=S)N(CC)CC [NCGC00016000-13, disulfiram, reference compound] | 34
24 | CN(C)C(=S)SSC(=S)N(C)C [NCGC00091563-02, thiram, reference compound] | 44
25 | O=[N+]([O-])c1cnc(Sc2nnc(O)n2-c2ccc3c(c2)OCCO3)s1 [NCGC00263145-01] | 89

same assay, conditions: F-scrambled peptide; *: Curve in opposite direction

Row | Compound | 384-well COUNTERSCREEN Confirm?
26 | CCN(CC)C(=S)SSC(=S)N(CC)CC [NCGC00016000-13, disulfiram, reference compound] | YES
27 | CN(C)C(=S)SSC(=S)N(C)C [NCGC00091563-02, thiram, reference compound] | YES
28 | O=[N+]([O-])c1cnc(Sc2nnc(O)n2-c2ccc3c(c2)OCCO3)s1 [NCGC00263145-01] | YES

same assay, conditions: F-scrambled peptide; read-out: 384-well COUNTERSCREEN IC50

Row | Compound | IC50 [µM]
29 | CCN(CC)C(=S)SSC(=S)N(CC)CC [NCGC00016000-13, disulfiram, reference compound] | > 120
30 | CN(C)C(=S)SSC(=S)N(C)C [NCGC00091563-02, thiram, reference compound] | > 120
31 | O=[N+]([O-])c1cnc(Sc2nnc(O)n2-c2ccc3c(c2)OCCO3)s1 [NCGC00263145-01] | 89.1

molecular target: T4, GST-CIB1 : F-scrambled peptide; experiment: FP scrambled-peptide counter screen, 1536-well format; type: binding; conditions: scrambled-peptide counterscreen

Row | Compound | COUNTERSCREEN Efficacy (%)
32 | CCN(CC)C(=S)SSC(=S)N(CC)CC [NCGC00016000-13, disulfiram, reference compound] | -13
33 | O=[N+]([O-])c1cnc(Sc2nnc(O)n2-c2ccc3c(c2)OCCO3)s1 [NCGC00263145-01] | 15

same assay, conditions: scrambled-peptide counterscreen, YES/NO call

Row | Compound | COUNTERSCREEN Confirm?
34 | CCN(CC)C(=S)SSC(=S)N(CC)CC [NCGC00016000-13, disulfiram, reference compound] | YES
35 | O=[N+]([O-])c1cnc(Sc2nnc(O)n2-c2ccc3c(c2)OCCO3)s1 [NCGC00263145-01] | YES

same assay, conditions: scrambled-peptide counterscreen, qHTS curve class

Row | Compound | COUNTERSCREEN Curve Class
36 | CCN(CC)C(=S)SSC(=S)N(CC)CC [NCGC00016000-13, disulfiram, reference compound] | 4
37 | O=[N+]([O-])c1cnc(Sc2nnc(O)n2-c2ccc3c(c2)OCCO3)s1 [NCGC00263145-01] | 4

molecular target: T5, CIB1 and αIIb interaction (GST-CIB1 : F-αIIb peptide) (Homo sapiens, UniProt Q99828); experiment: FP assay, 384-well format (screen); type: binding; design: 384-well SCREEN Efficacy (%): concentration or dose not given beside the values; conditions: F-αIIb peptide
T5 construct: made in house; host or cells: BL-21 plus RIL cells (E. coli)
T5 sequence (Q99828 1-191): T1 sequence (Q99828 1-191)

Row | Compound | 384-well SCREEN Efficacy (%)
38 | CCN(CC)C(=S)SSC(=S)N(CC)CC [NCGC00016000-13, disulfiram, reference compound] | 95
39 | CN(C)C(=S)SSC(=S)N(C)C [NCGC00091563-02, thiram, reference compound] | 78
40 | O=[N+]([O-])c1cnc(Sc2nnc(O)n2-c2ccc3c(c2)OCCO3)s1 [NCGC00263145-01] | 67

same assay, conditions: F-αIIb peptide; YES/NO

Row | Compound | 384-well SCREEN Confirm?
41 | CCN(CC)C(=S)SSC(=S)N(CC)CC [NCGC00016000-13, disulfiram, reference compound] | YES
42 | CN(C)C(=S)SSC(=S)N(C)C [NCGC00091563-02, thiram, reference compound] | YES
43 | O=[N+]([O-])c1cnc(Sc2nnc(O)n2-c2ccc3c(c2)OCCO3)s1 [NCGC00263145-01] | YES

same assay, conditions: F-αIIb peptide; read-out: 384-well SCREEN IC50

Row | Compound | IC50 [nM]
44 | CCN(CC)C(=S)SSC(=S)N(CC)CC [NCGC00016000-13, disulfiram, reference compound] | 1600
45 | CN(C)C(=S)SSC(=S)N(C)C [NCGC00091563-02, thiram, reference compound] | 2800
46 | O=[N+]([O-])c1cnc(Sc2nnc(O)n2-c2ccc3c(c2)OCCO3)s1 [NCGC00263145-01] | 2200
